Consider 16 compounds from ChEMBL document CHEMBL1201862, “PubChem BioAssay data set” (2004).

SMILES strings stand for the structures.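 1) Cells in 96-well plates. 2) Compound, 48 h, 5 concentrations. 3) Linear interpolation between surrounding doses. 4) Unreached endpoint = highest concentration. GI50: concentration for 50% inhibition of growth.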 Activity calls are given as the source filed them. Rule as the data show it: active = GI50 up to about 1.1 µM and inactive = higher.

Among the test systems are RXF 393; IGROV-1; U-251; SW-620; SK-OV-3; SF-295; UACC-257; MOLT-4; SK-MEL-28; UACC-62; RPMI-8226; LOX IMVI; HCC 2998; CAKI-1.
What all share (assay): NCI-60 cell line screen, 48 h

For the compound `O=C(Nc1cc(Cl)ccc1Cl)c1cc2ccccc2oc1=O`, the GI50 is 37.2 µM (inactive) with RXF 393; > 100 µM (inactive) in the assay on IGROV-1; 59.3 µM (inactive) in the assay with U-251; > 100 µM (inactive) with SW-620; 38.9 µM (inactive) in the assay with SK-OV-3; 43.3 µM (inactive) in the assay with SF-295. For the same compound, the GI50 with UACC-257 was 97.3 µM (inactive); in the assay on MOLT-4 it was 94.8 µM (inactive); in the assay with SK-MEL-28 it was > 100 µM (inactive); with UACC-62, > 100 µM (inactive); in the assay with RPMI-8226, > 100 µM (inactive); with LOX IMVI it was 61 µM (inactive).

As for `CCP(C)(=O)CC`, the GI50 in the assay with RXF 393, with IGROV-1, with HCC 2998, with U-251, with SW-620 and in the assay on SK-OV-3 was > 100 µM (inactive) throughout. For the same compound, the GI50 in the assay on SF-295, in the assay with UACC-257, with MOLT-4, in the assay with SK-MEL-28, with UACC-62 and in the assay on RPMI-8226 was > 100 µM (inactive) throughout. The GI50 with LOX IMVI and with CAKI-1 was > 100 µM (inactive) each time.

In the case of `O=C1C(=O)N(c2ccc(Cl)c(Cl)c2)C(=O)C(=O)C1c1nc2ccccc2o1`, the GI50 in the assay on IGROV-1 is > 100 µM (inactive); with HCC 2998, > 100 µM (inactive); in the assay with U-251, 33.3 µM (inactive); with SW-620, 56.5 µM (inactive); with SK-OV-3, > 100 µM (inactive); in the assay with SF-295, > 100 µM (inactive). The GI50 is 98.4 µM (inactive) in the assay with UACC-257; 31.7 µM (inactive) in the assay on MOLT-4; > 100 µM (inactive) in the assay with SK-MEL-28; 74.8 µM (inactive) with UACC-62; 24.7 µM (inactive) in the assay on RPMI-8226; > 100 µM (inactive) in the assay on LOX IMVI. Moreover, the GI50 with CAKI-1 is > 100 µM (inactive).

Consider `CC(C)C(Sc1nc(-c2ccccc2)c(-c2ccccc2)[nH]1)C(=O)N/N=C/c1ccc(Cl)cc1` (configuration not stated), for which the GI50 in the assay on IGROV-1 was 24 µM (inactive); in the assay on U-251, 21.7 µM (inactive); with SW-620, 26.2 µM (inactive); in the assay with SK-OV-3 it was 27.2 µM (inactive); with SF-295 it was 22.8 µM (inactive); with UACC-257, 21 µM (inactive). Further, the GI50 with MOLT-4 was 0.0382 µM (active); with SK-MEL-28, 21.8 µM (inactive); with UACC-62, 22.8 µM (inactive); in the assay with RPMI-8226 it was 19.7 µM (inactive); in the assay with LOX IMVI it was 15.5 µM (inactive); with CAKI-1, 44.5 µM (inactive).

Regarding `NC1=NN(c2ccccc2)C(=O)C1C(=O)CCC(=O)Nc1cccc(C(F)(F)F)c1` (configuration not stated), the GI50 with RXF 393 was > 100 µM (inactive); in the assay with IGROV-1, > 100 µM (inactive); with HCC 2998 it was > 100 µM (inactive); in the assay on U-251 it was > 100 µM (inactive); in the assay on SW-620, 42.6 µM (inactive); in the assay with SK-OV-3 it was > 100 µM (inactive). The GI50 was > 100 µM (inactive) with SF-295; > 100 µM (inactive) in the assay with UACC-257; > 100 µM (inactive) in the assay on MOLT-4; > 100 µM (inactive) in the assay on SK-MEL-28; 53 µM (inactive) with UACC-62; 72.4 µM (inactive) in the assay with LOX IMVI. Also, the GI50 in the assay on CAKI-1 is > 100 µM (inactive).

Regarding `C#CCOCn1cnc2c(N)ncnc21`, the GI50 with IGROV-1, in the assay on HCC 2998, in the assay with U-251, in the assay on SW-620, with SK-OV-3 and in the assay with SF-295 was > 100 µM (inactive) each time. Also, the GI50 with UACC-257, with MOLT-4, in the assay on SK-MEL-28, in the assay on UACC-62, in the assay with RPMI-8226 and in the assay with LOX IMVI was > 100 µM (inactive) in each case. Further, the GI50 in the assay on CAKI-1 is > 100 µM (inactive).

Consider `Cc1nc2ccccc2nc1NS(=O)(=O)c1ccc(N)cc1`, for which the GI50 in the assay with RXF 393, in the assay on IGROV-1, in the assay on HCC 2998, in the assay with U-251, in the assay with SW-620 and in the assay with SF-295 was > 100 µM (inactive) throughout. In addition, the GI50 with UACC-257, in the assay on MOLT-4, in the assay on SK-MEL-28, with UACC-62, with RPMI-8226 and in the assay with LOX IMVI was > 100 µM (inactive) each time. Further, the GI50 with CAKI-1 was > 100 µM (inactive).

Consider `CCC1(c2c(F)c(F)c(N)c(F)c2F)CCC(=O)NC1=O` (configuration not stated), for which the GI50 in the assay with IGROV-1, in the assay on HCC 2998, in the assay with U-251, with SW-620, with SK-OV-3 and in the assay with SF-295 was > 100 µM (inactive) throughout. Besides, the GI50 in the assay with UACC-257, with MOLT-4, in the assay with SK-MEL-28, in the assay with UACC-62, with RPMI-8226 and in the assay on LOX IMVI was > 100 µM (inactive) in each case. For the same compound, in the assay on CAKI-1, the GI50 was > 100 µM (inactive).

For the compound `COC(=O)C1=CC(=O)[C@@H]2CCCC[C@H]12`, the GI50 in the assay on RXF 393, with HCC 2998, in the assay with U-251, with SW-620, in the assay with SK-OV-3 and with UACC-257 was > 100 µM (inactive) each time. The GI50 with MOLT-4, with SK-MEL-28, with UACC-62, with RPMI-8226 and with CAKI-1 was > 100 µM (inactive) each time.

For `N#CCCC(C#N)(C#N)CCC#N`, the GI50 with IGROV-1, in the assay with HCC 2998, in the assay with U-251, in the assay on SW-620, in the assay with SK-OV-3 and with SF-295 was > 100 µM (inactive) each time. The GI50 in the assay with UACC-257, with MOLT-4, with SK-MEL-28, in the assay on UACC-62, in the assay on RPMI-8226 and in the assay with LOX IMVI was > 100 µM (inactive) throughout.

For `Cc1ccc(C2=C(c3ccccc3)C(Br)(c3ccccc3)C(c3ccccc3)=C2c2ccc(C)cc2)cc1`, the GI50 with RXF 393, with IGROV-1, in the assay on U-251, in the assay with SW-620, with SK-OV-3 and with SF-295 was > 100 µM (inactive) throughout. Also, the GI50 in the assay on UACC-257, in the assay with MOLT-4, in the assay with SK-MEL-28, in the assay with UACC-62, in the assay with RPMI-8226 and in the assay on CAKI-1 was > 100 µM (inactive) throughout.

In the case of `O=c1[nH]c(=O)n(C2CC(O)C(CO)O2)cc1COCC(F)(F)F` (configuration not stated), the GI50 in the assay with RXF 393, with IGROV-1, in the assay with HCC 2998, in the assay on U-251, with SW-620 and in the assay with SK-OV-3 was > 100 µM (inactive) throughout. The GI50 with SF-295, with UACC-257, with MOLT-4, in the assay on UACC-62, with RPMI-8226 and in the assay with LOX IMVI was > 100 µM (inactive) in each case. Moreover, the GI50 in the assay on CAKI-1 is > 100 µM (inactive).

With `CC1=CC2C(=O)N(c3ccccc3)C(=O)C2CC1n1[nH]c(=O)n(Cc2ccccc2)c1=O` (configuration not stated), the GI50 with RXF 393, in the assay with IGROV-1, in the assay with HCC 2998, with U-251, in the assay on SW-620 and in the assay on SK-OV-3 was > 100 µM (inactive) throughout. The GI50 with SF-295, with UACC-257, in the assay with SK-MEL-28, with UACC-62, with LOX IMVI and with CAKI-1 was > 100 µM (inactive) throughout.

With `Nc1nc(O)c([N+](=O)[O-])c(NCCOCP(=O)(O)O)n1`, the GI50 in the assay on RXF 393, with IGROV-1, in the assay on HCC 2998, in the assay with U-251, in the assay on SW-620 and in the assay with SK-OV-3 was > 100 µM (inactive) in each case. Also, the GI50 with SF-295, with UACC-257, in the assay with MOLT-4, in the assay with SK-MEL-28, in the assay with UACC-62 and in the assay with RPMI-8226 was > 100 µM (inactive) throughout. The GI50 in the assay on LOX IMVI is > 100 µM (inactive).

Take `Cc1ccccc1C(=O)c1ccccc1O`: the GI50 with RXF 393, with IGROV-1, in the assay with HCC 2998, in the assay on U-251, in the assay on SW-620 and in the assay on SK-OV-3 was > 100 µM (inactive) each time. The GI50 with SF-295, in the assay on UACC-257, with MOLT-4, in the assay on SK-MEL-28, in the assay on UACC-62 and in the assay on LOX IMVI was > 100 µM (inactive) throughout. Moreover, the GI50 in the assay with CAKI-1 was > 84.3 µM (inactive).

On to `N#CC(NNC(=O)c1ccccc1O)c1ccc(O)cc1` (configuration not stated), for which the GI50 was 1.48 µM (inactive) in the assay on RXF 393; 3.96 µM (inactive) in the assay with IGROV-1; 3.8 µM (inactive) in the assay on U-251; 26.7 µM (inactive) in the assay with SW-620; 6.44 µM (inactive) in the assay on SK-OV-3; 4.38 µM (inactive) in the assay with SF-295. For the same compound, the GI50 is 15.6 µM (inactive) with UACC-257; 4.17 µM (inactive) in the assay with MOLT-4; > 100 µM (inactive) with SK-MEL-28; 1.95 µM (inactive) with UACC-62; 10.2 µM (inactive) in the assay with RPMI-8226; 5.83 µM (inactive) in the assay on LOX IMVI. The GI50 in the assay on CAKI-1 is 6 µM (inactive).
